One molecule from PMC6269498, “Increased activity of MdFRK2, a high-affinity fructokinase, leads to upregulation of sorbitol metabolism and downregulation of sucrose metabolism in apple leaves” (Horticulture Research, 2018) can be followed below.

For the test, the system named is MdFRK1. In words: coupled spectrophotometric assay (phosphoglucoisomerase / G6P dehydrogenase), […] nm. It counts as biochemical, Malus domestica. The conditions noted are these: 50 mM Tris-HCl pH 8.0, 4 mM MgCl2, 2.5 mM ATP; substrate inhibition above 2 mM fructose.

In the case of `OCC1(O)OC[C@@H](O)[C@@H](O)[C@@H]1O` (stereo partly shown) [fructose], the Michaelis-Menten constant (Km) (commonly the substrate concentration at which the rate is half of its maximum) was 620 µM.
